The target in assay [1] is BRD4 (Homo sapiens (Human), UniProt O60885). Briefly: TR-FRET in-vitro binding assay for BRD4. The following applies: 45 nM His-Brd4(44-477), acetyl-histone H4 (AcK 5, 8, 12, 16) peptide. In a few lines:
(§1)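 Binding is detected by TR-FRET following incubation for 35 minutes at 30° C.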

Assay [2] deals with BRD2 (Homo sapiens (Human), UniProt P25440). Briefly: TR-FRET in-vitro binding assay for BRD2. The following applies: 45 nM His-Brd2(60-472), acetyl-histone H4 (AcK 5, 8, 12, 16) peptide. In a few lines: as §1
Sequence of BRD2 (P25440 60-472): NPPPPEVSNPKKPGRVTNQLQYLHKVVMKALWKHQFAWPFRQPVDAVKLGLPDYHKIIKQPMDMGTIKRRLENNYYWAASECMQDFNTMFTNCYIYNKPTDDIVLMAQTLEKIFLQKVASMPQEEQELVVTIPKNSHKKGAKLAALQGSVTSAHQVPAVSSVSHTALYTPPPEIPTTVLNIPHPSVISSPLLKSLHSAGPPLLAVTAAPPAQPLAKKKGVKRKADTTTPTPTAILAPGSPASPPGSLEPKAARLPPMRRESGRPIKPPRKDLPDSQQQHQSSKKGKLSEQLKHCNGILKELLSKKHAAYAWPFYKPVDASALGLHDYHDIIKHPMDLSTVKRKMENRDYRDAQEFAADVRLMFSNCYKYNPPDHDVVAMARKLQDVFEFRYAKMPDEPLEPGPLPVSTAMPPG
Background: TR-FRET usually uses a lanthanide donor and a delayed reading to cut background.

Assay [3] addresses BRD3 (Homo sapiens (Human), UniProt Q15059). In words: TR-FRET in-vitro binding assay for BRD3. The following applies: 45 nM His-Brd3(20-477), acetyl-histone H4 (AcK 5, 8, 12, 16) peptide. In a few lines:
as §1

Assay [4] concerns the target CREBBP (Homo sapiens (Human), UniProt Q92793). In words: AlphaScreen in-vitro binding assay for CREBBP. The following applies: 324 nM His-CREBBP (1081-1197), acetyl-histone H4 (AcK 5, 8, 12) peptide. In a few lines: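 IC50 values were derived by non-linear regression of percent inhibition across 8 compound concentrations. Protein was His-tagged CREBBP bromodomain (1081-1197), peptide acetyl-histone H4 (AcK 5, 8, 12), in HEPES pH 7.5 buffer. Read-out was AlphaScreen with Ni-chelate acceptor and streptavidin donor beads, 35 min at 30° C then 60 min at RT.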
A general note: In Alpha technology, singlet oxygen from a donor bead excites a nearby acceptor bead.

The test system of assay [5] is MV-4-11. Briefly: Cell growth inhibition assay (CellTiter-Glo), MV-4-11. It is filed as cell-based, human. The following applies: MV-4-11 cells, 4 days; for GI50: Homo sapiens, MV4-11, 96 h, half-maximal growth inhibition; for MV-4-11 TGI: total growth inhibition. In a few lines: (§2)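 Proliferation and viability are quantified by CellTiter-Glo after four days of incubation with serially diluted compound (maximum 10 μM). Four-parameter curve fitting gives IC50 and TGI.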
For orientation: Cellular ATP, detected with luciferase, serves as a proxy for viable cell number.

In assay [6] the test system is THP-1. Briefly: Cell growth inhibition assay (CellTiter-Glo), THP-1. The following applies: THP-1 cells, 4 days; for GI50: Homo sapiens, 96 h, half-maximal growth inhibition; for THP-1 TGI: total growth inhibition. It is filed as cell-based, human. An outline of the steps:
as §2

Assay [7] deals with K-562. In words: Cell growth inhibition assay (CellTiter-Glo), K-562. The settings on record: K-562 cells, 4 days; for GI50: Homo sapiens, K562, 96 h, half-maximal growth inhibition; for K-562 TGI: total growth inhibition. It counts as cell-based, human. In a few lines: as §2

Usually IC50 stands for the concentration needed to halve the response being measured. A low value points to greater potency in that assay. Usually GI50 stands for the concentration that inhibits growth by half.

Sequence of CREBBP (Q92793 1081-1197): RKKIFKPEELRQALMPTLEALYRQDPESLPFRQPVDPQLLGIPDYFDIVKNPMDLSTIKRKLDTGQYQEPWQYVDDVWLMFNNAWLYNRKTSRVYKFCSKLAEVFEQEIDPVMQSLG
Sequence of BRD3 (Q15059 20-477): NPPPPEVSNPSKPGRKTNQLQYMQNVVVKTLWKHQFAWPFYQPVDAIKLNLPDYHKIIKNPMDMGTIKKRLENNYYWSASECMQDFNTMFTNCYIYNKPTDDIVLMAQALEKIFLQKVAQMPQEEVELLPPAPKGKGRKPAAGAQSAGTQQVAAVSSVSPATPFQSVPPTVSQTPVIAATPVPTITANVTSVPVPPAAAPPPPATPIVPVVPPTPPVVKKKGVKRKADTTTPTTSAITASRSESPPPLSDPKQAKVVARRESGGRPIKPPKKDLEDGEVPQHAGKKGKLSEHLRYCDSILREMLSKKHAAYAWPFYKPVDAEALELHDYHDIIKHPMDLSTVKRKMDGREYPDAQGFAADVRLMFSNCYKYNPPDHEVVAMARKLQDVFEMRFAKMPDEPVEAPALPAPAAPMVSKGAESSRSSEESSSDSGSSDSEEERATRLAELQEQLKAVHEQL

`Cn1c(-c2cccn(C)c2=O)cc2c1C(c1ccc(Cl)cc1)N(c1cc(Cl)c(=O)n(C)c1)C2=O` (centres unmarked) [Example 43, 5-(5-chloro-1-methyl-6-oxo-1,6-dihydropyridin-3-yl)-6-(4-chlorophenyl)-1-methyl-2-(1-methyl-2-oxo-1,2-dihydropyridin-3-yl)-5,6-dihydropyrrolo[3,4-b]pyrrol-4(1H)-one]: the IC50 is 120 nM in assay [1], 90 nM in assay [2], 77 nM in assay [3] and 690 nM in assay [4]. In addition, the results for the GI50 in assay [5], in assay [6] and in assay [7] were 183 nM, 276 nM and 934 nM, respectively. Besides, the “MV-4-11 TGI” value in assay [5] worked out at 310 nM. Also, the “THP-1 TGI” value in assay [6] stood at 492 nM. In addition, in assay [7], the “K-562 TGI” value was >10000 nM.
In the case of `Cc1cc(N2C(=O)c3c(C(=O)N(C)C)cn(C)c3C2c2ccc(Cl)cc2)nc2c1nnn2C` (centres unmarked) [Example 94, 6-(4-chlorophenyl)-5-(3,7-dimethyl-3H-[1,2,3]triazolo[4,5-b]pyridin-5-yl)-N,N,1-trimethyl-4-oxo-1,4,5,6-tetrahydropyrrolo[3,4-b]pyrrole-3-carboxamide], the IC50 in assay [1] is 12 nM; in assay [2], 17 nM; in assay [3], 13 nM; in assay [4], > 37000 nM. Further, the results for the GI50 in assay [5], in assay [6] and in assay [7] were 8.19 nM, 12.4 nM and 34.6 nM, respectively. For the same compound, in assay [5], the “MV-4-11 TGI” value worked out at 21.95 nM. For the same compound, the “THP-1 TGI” value in assay [6] stood at 29.85 nM. Besides, the “K-562 TGI” value in assay [7] is >10000 nM.
Take `Cn1ccc2c1C(c1ccccc1)N(c1cc(Cl)c(=O)n(C)c1)C2=O` (centres unmarked) [Example 86, 5-(5-chloro-1-methyl-6-oxo-1,6-dihydropyridin-3-yl)-1-methyl-6-phenyl-5,6-dihydropyrrolo[3,4-b]pyrrol-4(1H)-one]: the IC50 is 437 nM in assay [1], 433 nM in assay [2], 277 nM in assay [3] and 18400 nM in assay [4]. Further, the GI50 is 338 nM in assay [5], 392 nM in assay [6] and 1100 nM in assay [7]. The “MV-4-11 TGI” value in assay [5] amounted to 642 nM. The “THP-1 TGI” value in assay [6] was 795.5 nM. Further, in assay [7], the “K-562 TGI” value is >10000 nM.
`Cc1cn(CCO)c2c1C(=O)N(c1cc(C)c3nnc(C)n3c1)C2c1ccc(Cl)cc1` (centres unmarked) [Example 14, 6-(4-chlorophenyl)-5-(3,8-dimethyl-[1,2,4]triazolo[4,3-a]pyridin-6-yl)-1-(2-hydroxyethyl)-3-methyl-5,6-dihydropyrrolo[3,4-b]pyrrol-4(1H)-one]: the IC50 in assay [1] came to 22 nM; in assay [2], 23 nM; in assay [3], 25 nM; in assay [4], 6600 nM. Further, the GI50 in assay [5] amounted to 14.6 nM; in assay [6] it was 35.6 nM; in assay [7], 115 nM. For the same compound, the “MV-4-11 TGI” value in assay [5] was 30.85 nM. Also, the “THP-1 TGI” value in assay [6] was 81.55 nM. For the same compound, the “K-562 TGI” value in assay [7] is >10000 nM.
Consider `Cn1cc(N2C(=O)c3cc(-c4cccn(C)c4=O)n(C4CC4)c3C2c2ccc(Cl)cc2)cc(Cl)c1=O` (centres unmarked) [Example 64, 5-(5-chloro-1-methyl-6-oxo-1,6-dihydropyridin-3-yl)-6-(4-chlorophenyl)-1-cyclopropyl-2-(1-methyl-2-oxo-1,2-dihydropyridin-3-yl)-5,6-dihydropyrrolo[3,4-b]pyrrol-4(1H)-one], for which the IC50 in assay [1] is 85 nM; in assay [2], 50 nM; in assay [3] it was 82 nM; in assay [4], 1500 nM. Moreover, the GI50 in assay [5] worked out at 118 nM; in assay [6] it was 109 nM; in assay [7], 353 nM. In addition, in assay [5], the “MV-4-11 TGI” value was 196 nM. In assay [6], the “THP-1 TGI” value came to 215.5 nM. In addition, the “K-562 TGI” value in assay [7] is >10000 nM.
